Measured values published in patent publication US20210346357A1 (priority 2020, published 2021).
Where “and” joins values, the source holds several entries; their conditions need not be identical. Equal values may be shown once.

Test system: Symptomatic Acute Lung Injury Associated with COVID-19
Experiment: Phase 2 study Part 1, inhaled compound 1 in hospitalized COVID-19 patients
Conditions: for # Subjects Respiratory Failure-Free / # Subjects Alive: number of subjects; for IFN-γ, within-group percent difference in geometric mean from baseline / IL-6, within-group percent difference in geometric mean from baseline / IL-8, within-group percent difference in geometric mean from baseline / IL-10, within-group percent difference in geometric mean from baseline / IP-10, within-group percent difference in geometric mean from baseline / MCP-1, within-group percent difference in geometric mean from baseline / MDC, within-group percent difference in geometric mean from baseline / RAGE, within-group percent difference in geometric mean from baseline / TARC, within-group percent difference in geometric mean from baseline / hsCRP, within-group percent difference in geometric mean from baseline: matched D1 and D7 samples; for Time to Hospital Discharge (Days) Mean ± SD: still hospitalized or died = 28 days; for # Subjects Alive, percent / Died (All-Cause Mortality), number / # Subjects Alive: through Day 28
[1] = COVID-19 patients, 3 mg, Day 28
[2] = COVID-19 patients, 10 mg, Day 7
[3] = COVID-19 patients, 10 mg, Day 14
[4] = COVID-19 patients, 10 mg, Day 21
[5] = COVID-19 patients, 10 mg, Day 28
[6] = mostly in the 3 mg and 10 mg doses

SMILES: CCc1cc(O)ccc1-c1ccc2c(-c3nc4c([nH]3)CN(C(C)C)[C@H](C(=O)N3CC(N(C)C)C3)C4)n[nH]c2c1 [Compound 1, (S)-(3-(dimethylamino)azetidin-1-yl)(2-(6-(2-ethyl-4-hydroxyphenyl)-1H-indazol-3-yl)-5-isopropyl-4,5,6,7-tetrahydro-3H-imidazo[4,5-c]pyridin-6-yl)methanone]
- Hospital Discharge, percent (COVID-19 patients, 3 mg, Day 21): 86% and 85.7%
- # Subjects Respiratory Failure-Free, percent [1]: 85.7%
- Hospital Discharge, number [1]: 7
- Hospital Discharge, percent [1]: 100%
- Proportion of Subjects Alive and Respiratory Failure-free [1]: 85.7%
- Proportion of Subjects Alive and Respiratory Failure-free, number [1]: 6
- # Subjects Respiratory Failure-Free [1]: 6
- IFN-γ, within-group percent difference in geometric mean from baseline (COVID-19 patients, 3 mg): −90.42%
- IL-6, within-group percent difference in geometric mean from baseline (COVID-19 patients, 3 mg): −80.24%
- IL-8, within-group percent difference in geometric mean from baseline (COVID-19 patients, 3 mg): −48.02%
- IL-10, within-group percent difference in geometric mean from baseline (COVID-19 patients, 3 mg): −70.10%
- IP-10, within-group percent difference in geometric mean from baseline (COVID-19 patients, 3 mg): −81.44%
- MCP-1, within-group percent difference in geometric mean from baseline (COVID-19 patients, 3 mg): −54.15%
- MDC, within-group percent difference in geometric mean from baseline (COVID-19 patients, 3 mg): −23.84%
- RAGE, within-group percent difference in geometric mean from baseline (COVID-19 patients, 3 mg): −82.95%
- TARC, within-group percent difference in geometric mean from baseline (COVID-19 patients, 3 mg): −34.57%
- hsCRP, within-group percent difference in geometric mean from baseline (COVID-19 patients, 3 mg): −74.95%
- Time to Hospital Discharge (Days) Mean ± SD (COVID-19 patients, 3 mg): 15.29 ± 6.651 days
- # Subjects Alive, percent (COVID-19 patients, 3 mg): 100.0%
- Died (All-Cause Mortality), number (COVID-19 patients, 3 mg): 0
- # Subjects Alive (COVID-19 patients, 3 mg): 7
- Clinical Status at Day 28: 1-Not hospitalized, no limitations on activities, number (COVID-19 patients, 10 mg): 5
- Clinical Status at Day 28: 1-Not hospitalized, no limitations on activities, percent (COVID-19 patients, 10 mg): 83.3%
- Clinical Status at Day 28: 2-Not hospitalized, but with limitations on activities and/or requiring home oxygen, number (COVID-19 patients, 10 mg): 1
- Clinical Status at Day 28: 2-Not hospitalized, but with limitations on activities and/or requiring home oxygen, percent (COVID-19 patients, 10 mg): 16.7%
- Clinical Status at Day 28: 3-Hospitalized, not requiring supplemental oxygen, and no longer requiring ongoing medical care, number (COVID-19 patients, 10 mg): 0
- Clinical Status at Day 28: 4-Hospitalized, not requiring supplemental oxygen, but requiring ongoing medical care, number (COVID-19 patients, 10 mg): 0
- Clinical Status at Day 28: 5-Hospitalized, requiring supplemental oxygen, number (COVID-19 patients, 10 mg): 0
- Clinical Status at Day 28: 6-Hospitalized, on non-invasive ventilation or high-flow oxygen devices, number (COVID-19 patients, 10 mg): 0
- Clinical Status at Day 28: 7-Hospitalized, on invasive mechanical ventilation or extracorporeal membrane oxygenation, number (COVID-19 patients, 10 mg): 0
- Clinical Status at Day 28: 8-Death, number (COVID-19 patients, 10 mg): 0
- Still in Hospital at Day 28, number (COVID-19 patients, 10 mg): 0
- Time to Hospital Discharge (Days) Median (COVID-19 patients, 10 mg): 16.50 days
- Modified Borg Dyspnea Score, Baseline, Mean (COVID-19 patients, 10 mg group, baseline value): 6.00
- Modified Borg Dyspnea Score Change from Baseline, Mean (COVID-19 patients, 10 mg, Day 2): −0.33
- Modified Borg Dyspnea Score Change from Baseline, Mean (COVID-19 patients, 10 mg, Day 3): −1.17
- Modified Borg Dyspnea Score Change from Baseline, Mean (COVID-19 patients, 10 mg, Day 4): −1.50
- Modified Borg Dyspnea Score Change from Baseline, Mean (COVID-19 patients, 10 mg, Day 5): −1.17
- Modified Borg Dyspnea Score Change from Baseline, Mean (COVID-19 patients, 10 mg, Day 6): −1.33
- Hospital Discharge, number [2]: 0
- Modified Borg Dyspnea Score Change from Baseline, Mean [2]: −1.67
- Hospital Discharge, number [3]: 2
- Hospital Discharge, percent [3]: 33.3%
- Hospital Discharge, number [4]: 6
- Hospital Discharge, percent [4]: 100%
- # Subjects Respiratory Failure-Free, percent [5]: 100.0%
- Hospital Discharge, number [5]: 6
- Hospital Discharge, percent [5]: 100%
- Proportion of Subjects Alive and Respiratory Failure-free [5]: 100.0%
- Proportion of Subjects Alive and Respiratory Failure-free, number [5]: 6
- # Subjects Respiratory Failure-Free [5]: 6
- IFN-γ, within-group percent difference in geometric mean from baseline (COVID-19 patients, 10 mg): −78.59%
- IL-6, within-group percent difference in geometric mean from baseline (COVID-19 patients, 10 mg): −58.84%
- IL-8, within-group percent difference in geometric mean from baseline (COVID-19 patients, 10 mg): −25.87%
- IL-10, within-group percent difference in geometric mean from baseline (COVID-19 patients, 10 mg): −40.57%
- IP-10, within-group percent difference in geometric mean from baseline (COVID-19 patients, 10 mg): −79.32%
- MCP-1, within-group percent difference in geometric mean from baseline (COVID-19 patients, 10 mg): −21.15%
- MDC, within-group percent difference in geometric mean from baseline (COVID-19 patients, 10 mg): −6.70%
- RAGE, within-group percent difference in geometric mean from baseline (COVID-19 patients, 10 mg): −54.44%
- TARC, within-group percent difference in geometric mean from baseline (COVID-19 patients, 10 mg): −21.21%
- hsCRP, within-group percent difference in geometric mean from baseline (COVID-19 patients, 10 mg): −52.13%
- Time to Hospital Discharge (Days) Mean ± SD (COVID-19 patients, 10 mg): 15.17 ± 4.446 days
- # Subjects Alive, percent (COVID-19 patients, 10 mg): 100.0%
- Died (All-Cause Mortality), number (COVID-19 patients, 10 mg): 0
- # Subjects Alive (COVID-19 patients, 10 mg): 6
- tolerability (COVID-19 patients, single daily dose of 1 mg, 3 mg, and 10 mg for up to 7 days): generally well tolerated
- % subjects alive/reduced mortality, compared to Placebo (all compound 1 groups): positive trend
- % subjects respiratory-failure free at Day 28, compared to Placebo (all compound 1 groups): positive trend
- clinical improvement, 8-point Clinical Status Scale from Day 1 to Day 28, compared to Placebo (all compound 1 groups): positive trend
- earlier time to hospital discharge, compared to Placebo (all compound 1 groups): positive trend
- improvement in Modified Borg Dyspnea Score in mean change from baseline at Day 7, compared to Placebo (all compound 1 groups): positive trend
- reduction in alveolar epithelial cell injury marker RAGE [6]: positive trend
- reduction of inflammation markers including hsCRP, IFN-g, IL-6, IP-10 [6]: positive trend
